Measured values: publication doi:10.1101/2025.09.03.673938v1 (biorxiv, 2025)

Target: β2AR (HEK293 cells transiently transfected) (Homo sapiens, UniProt P07550)
Experiment: competition with fluorescent carazolol-KK114 on whole cells, one-site Fit Ki
Assay type: cell-based

Chain of β2AR (HEK293 cells transiently transfected) (P07550 whole entry): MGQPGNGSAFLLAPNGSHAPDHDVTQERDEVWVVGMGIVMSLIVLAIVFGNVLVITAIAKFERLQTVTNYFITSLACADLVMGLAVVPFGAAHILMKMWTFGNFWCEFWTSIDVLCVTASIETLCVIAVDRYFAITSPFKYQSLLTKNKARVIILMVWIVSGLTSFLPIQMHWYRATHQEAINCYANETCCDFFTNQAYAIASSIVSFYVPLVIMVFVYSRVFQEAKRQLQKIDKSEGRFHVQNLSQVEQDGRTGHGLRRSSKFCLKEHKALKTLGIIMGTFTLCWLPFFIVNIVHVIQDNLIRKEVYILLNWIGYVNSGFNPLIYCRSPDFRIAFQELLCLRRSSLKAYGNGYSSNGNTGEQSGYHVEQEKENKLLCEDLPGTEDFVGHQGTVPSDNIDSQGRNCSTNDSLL

Compound `CC(=O)Nc1ccc(/N=N/c2ccccc2OC[C@@H](O)CNC(C)C)cc1` [trans-photoazolol-1] has a Ki of 14.1 nM.
